The values below come from PubChem BioAssay AID1259407 (Chemical Carcinogenesis Research Information System (CCRIS), 2018).

The subject of the series is CCRIS mutagenicity, Ames/micronucleus/aberration tests. Briefly: CCRIS mutagenicity studies.

Active and inactive are the calls of the source. The rule behind the calls is not given here.

On to `CC(O)C#N` (stereo not given), for which the mutagenic call was “inactive; negative” (Test System: AMES SALMONELLA TYPHIMURIUM, Strain/Indicator: TA97, Metabolic Activation: HAMSTER, LIVER, S-9, AROCLOR 1254 (10%), Method: PREINCUBATION); “inactive; negative” (Test System: AMES SALMONELLA TYPHIMURIUM, Strain/Indicator: TA97, Metabolic Activation: HAMSTER, LIVER, S-9, AROCLOR 1254 (30%), Method: PREINCUBATION); “inactive; negative” (Test System: AMES SALMONELLA TYPHIMURIUM, Strain/Indicator: TA97, Metabolic Activation: NONE, Method: PREINCUBATION); “inactive; negative” (Test System: AMES SALMONELLA TYPHIMURIUM, Strain/Indicator: TA97, Metabolic Activation: RAT, LIVER, S-9, AROCLOR 1254 (5%), Method: PREINCUBATION); “inactive; negative” (Test System: AMES SALMONELLA TYPHIMURIUM, Strain/Indicator: TA97, Metabolic Activation: RAT, LIVER, S-9, AROCLOR 1254 (10%), Method: PREINCUBATION); “inactive; negative” (Test System: AMES SALMONELLA TYPHIMURIUM, Strain/Indicator: TA97, Metabolic Activation: RAT, LIVER, S-9, AROCLOR 1254 (30%), Method: PREINCUBATION). For the same molecule, the mutagenic call (Test System: AMES SALMONELLA TYPHIMURIUM, Strain/Indicator: TA98, Metabolic Activation: HAMSTER, LIVER, S-9, AROCLOR 1254 (10%), Method: PREINCUBATION) was “inactive; negative”; the mutagenic call (Test System: AMES SALMONELLA TYPHIMURIUM, Strain/Indicator: TA98, Metabolic Activation: HAMSTER, LIVER, S-9, AROCLOR 1254 (30%), Method: PREINCUBATION) is “inactive; negative”; the mutagenic call (Test System: AMES SALMONELLA TYPHIMURIUM, Strain/Indicator: TA98, Metabolic Activation: NONE, Method: PREINCUBATION) is “inactive; negative”; the mutagenic call (Test System: AMES SALMONELLA TYPHIMURIUM, Strain/Indicator: TA98, Metabolic Activation: RAT, LIVER, S-9, AROCLOR 1254 (10%), Method: PREINCUBATION) was “inactive; negative”; the mutagenic call (Test System: AMES SALMONELLA TYPHIMURIUM, Strain/Indicator: TA98, Metabolic Activation: RAT, LIVER, S-9, AROCLOR 1254 (30%), Method: PREINCUBATION) is “inactive; negative”; the mutagenic call (Test System: AMES SALMONELLA TYPHIMURIUM, Strain/Indicator: TA100, Metabolic Activation: HAMSTER, LIVER, S-9, AROCLOR 1254 (10%), Method: PREINCUBATION) is “inactive; negative”. The mutagenic call runs as follows: (Test System: AMES SALMONELLA TYPHIMURIUM, Strain/Indicator: TA100, Metabolic Activation: HAMSTER, LIVER, S-9, AROCLOR 1254 (30%), Method: PREINCUBATION) “inactive; negative”; (Test System: AMES SALMONELLA TYPHIMURIUM, Strain/Indicator: TA100, Metabolic Activation: NONE, Method: PREINCUBATION) “inactive; negative”; (Test System: AMES SALMONELLA TYPHIMURIUM, Strain/Indicator: TA100, Metabolic Activation: RAT, LIVER, S-9, AROCLOR 1254 (5 OR 30%), Method: PREINCUBATION) “inactive; negative”; (Test System: AMES SALMONELLA TYPHIMURIUM, Strain/Indicator: TA100, Metabolic Activation: RAT, LIVER, S-9, AROCLOR 1254 (10%), Method: PREINCUBATION) “inactive; negative”; (Test System: AMES SALMONELLA TYPHIMURIUM, Strain/Indicator: TA1535, Metabolic Activation: HAMSTER, LIVER, S-9, AROCLOR 1254 (10%), Method: PREINCUBATION) “inactive; negative”; (Test System: AMES SALMONELLA TYPHIMURIUM, Strain/Indicator: TA1535, Metabolic Activation: HAMSTER, LIVER, S-9, AROCLOR 1254 (30%), Method: PREINCUBATION) “inactive; negative”. In addition, the mutagenic call reads like this: (Test System: AMES SALMONELLA TYPHIMURIUM, Strain/Indicator: TA1535, Metabolic Activation: NONE, Method: PREINCUBATION) “inactive; negative”; (Test System: AMES SALMONELLA TYPHIMURIUM, Strain/Indicator: TA1535, Metabolic Activation: RAT, LIVER, S-9, AROCLOR 1254 (10%), Method: PREINCUBATION) “inactive; negative”; (Test System: AMES SALMONELLA TYPHIMURIUM, Strain/Indicator: TA1535, Metabolic Activation: RAT, LIVER, S-9, AROCLOR 1254 (30%), Method: PREINCUBATION) “inactive; negative”; (Test System: AMES SALMONELLA TYPHIMURIUM, Strain/Indicator: TA1537, Metabolic Activation: HAMSTER, LIVER, S-9, AROCLOR 1254 (30%), Method: PREINCUBATION) “inactive; negative”; (Test System: AMES SALMONELLA TYPHIMURIUM, Strain/Indicator: TA1537, Metabolic Activation: RAT, LIVER, S-9, AROCLOR 1254 (30%), Method: PREINCUBATION) “inactive; negative”.
With `COc1nsc2c([N+](=O)[O-])cccc12`, the mutagenic call (Test System: AMES SALMONELLA TYPHIMURIUM, Strain/Indicator: TA100, Metabolic Activation: NONE, Method: STANDARD PLATE) is “active; positive”.
Regarding `C=C(C)C1CC=C(C=O)CC1` (stereo not given), where the note is “End Point: IN VIVO MICRONUCLEUS, Test System: BONE MARROW POLYCHROMATIC ERYTHROCYTES, Species: MOUSE, Strain/Sex: DDY/MALE, Route: IP”, the mutagenic call was “inactive; negative”.
`COc1ccc(C(O)(c2cncnc2)C2CC2)cc1` (stereo not given): the mutagenic call is “inactive; negative” (Test System: Ames Salmonella typhimurium, Strain/Indicator: TA98, Metabolic Activation: None, Method: Standard Plate); “inactive; negative” (Test System: Ames Salmonella typhimurium, Strain/Indicator: TA98, Metabolic Activation: Rat, liver, S-9, Method: Standard Plate); “inactive; negative” (Test System: Ames Salmonella typhimurium, Strain/Indicator: TA100, Metabolic Activation: None, Method: Standard Plate); “inactive; negative” (Test System: Ames Salmonella typhimurium, Strain/Indicator: TA100, Metabolic Activation: Rat, liver, S-9, Method: Standard Plate); “inactive; negative” (Test System: Ames Salmonella typhimurium, Strain/Indicator: TA1535, Metabolic Activation: None, Method: Standard Plate); “inactive; negative” (Test System: Ames Salmonella typhimurium, Strain/Indicator: TA1535, Metabolic Activation: Rat, liver, S-9, Method: Standard Plate). Further, the mutagenic call (Test System: Ames Salmonella typhimurium, Strain/Indicator: TA1537, Metabolic Activation: None, Method: Standard Plate) is “inactive; negative”; the mutagenic call (Test System: Ames Salmonella typhimurium, Strain/Indicator: TA1537, Metabolic Activation: Rat, liver, S-9, Method: Standard Plate) is “inactive; negative”; the mutagenic call (Test System: Ames Salmonella typhimurium, Strain/Indicator: TA1538, Metabolic Activation: None, Method: Standard Plate) was “inactive; negative”; the mutagenic call (Test System: Ames Salmonella typhimurium, Strain/Indicator: TA1538, Metabolic Activation: Rat, liver, S-9, Method: Standard Plate) was “inactive; negative”; the mutagenic call (Test System: Mouse lymphoma, Strain/Indicator: L5178Y (TK+/TK-), Metabolic Activation: None, Method: Suspension/Plate) was “inactive; negative”; the mutagenic call (Test System: Mouse lymphoma, Strain/Indicator: L5178Y (TK+/TK-), Metabolic Activation: S-9 of unspecified origin, Method: Suspension/Plate) was “inactive; negative”.
In the case of `CC(=O)Nc1ccc(-c2ccc(NC(C)=O)cc2)cc1`, the mutagenic call reads like this: (Test System: AMES SALMONELLA TYPHIMURIUM, Strain/Indicator: TA1538, Metabolic Activation: GUINEA PIG, LIVER, HEPATOCYTES, Method: PREINCUBATION) “active; positive”; (Test System: AMES SALMONELLA TYPHIMURIUM, Strain/Indicator: TA1538, Metabolic Activation: GUINEA PIG, LIVER, S-9, ACETYL-COA (0.1 OR 1 MILLIMOLAR), Method: PREINCUBATION) “active; positive”; (Test System: AMES SALMONELLA TYPHIMURIUM, Strain/Indicator: TA1538, Metabolic Activation: GUINEA PIG, LIVER, S-9, Method: PREINCUBATION) “active; positive”; (Test System: AMES SALMONELLA TYPHIMURIUM, Strain/Indicator: TA1538, Metabolic Activation: HAMSTER, LIVER, HEPATOCYTES, Method: PREINCUBATION) “active; positive”; (Test System: AMES SALMONELLA TYPHIMURIUM, Strain/Indicator: TA1538, Metabolic Activation: HAMSTER, LIVER, S-9, ACETYL-COA (0.1 OR 1 MILLIMOLAR), Method: PREINCUBATION) “active; positive”; (Test System: AMES SALMONELLA TYPHIMURIUM, Strain/Indicator: TA1538, Metabolic Activation: HAMSTER, LIVER, S-9, Method: PREINCUBATION) “active; positive”. For the same molecule, the mutagenic call runs as follows: (Test System: AMES SALMONELLA TYPHIMURIUM, Strain/Indicator: TA1538, Metabolic Activation: RAT, LIVER, HEPATOCYTES, Method: PREINCUBATION) “active; positive”; (Test System: AMES SALMONELLA TYPHIMURIUM, Strain/Indicator: TA1538, Metabolic Activation: RAT, LIVER, S-9, ACETYL-COA (0.1 OR 1 MILLIMOLAR), Method: PREINCUBATION) “active; positive”; (Test System: AMES SALMONELLA TYPHIMURIUM, Strain/Indicator: TA1538, Metabolic Activation: RAT, LIVER, S-9, Method: PREINCUBATION) “active; positive”; (Test System: Ames Salmonella typhimurium, Strain/Indicator: TA102, Metabolic Activation: None, Method: Preincubation) “inactive; negative”; (Test System: Ames Salmonella typhimurium, Strain/Indicator: TA102, Metabolic Activation: Rat, liver, S-9, Aroclor 1254, 4%, Method: Preincubation) “inactive; negative”.
As to `Nc1cc(Cl)c(N)c(Cl)c1`, the mutagenic call (End Point: IN VITRO CHROMOSOMAL ABERRATIONS, Test System: CHO CELLS, Metabolic Activation: NONE) is “active; positive; weak response”.
With `COc1ccc2c(c1)C(=O)c1nccc3cc(OC)c(OC)c-2c13`, the mutagenic call (Test System: AMES SALMONELLA TYPHIMURIUM, Strain/Indicator: TA100, Metabolic Activation: RAT, LIVER, S-9, PHENOBARBITAL AND BETA-NAPHTHOFLAVONE, Method: PREINCUBATION) is “active; positive”.
